Read-outs that look alike come from different tables or passages of the source.
Key:
Fibrosarcoma Meth A [1] = test: Test Method B: intrapleurally inoculated Meth A tumor in mice, injection into pleural cavity, mean survival time; type: in vivo, BALB/c mice; parameters: dose or concentration left out as unconfirmed; conditions: for Anti-tumor activity (%) *d: comparison of mean survival time of medicated group (T) and control group (C), into pleural cavity three times; for Mean survival time: into pleural cavity three times (before 14 days, after 1 hour and after 3 days of tumor implantation), 5 x 10^5 Meth A cells intrapleurally
Description: Groups of eight female BALB/c mice, aged 8-9 weeks and weighing 18.0-22.5 g were used.
Fibrosarcoma Meth A (hereinafter referred to as Meth A) was successively transferred every 7 days into BALB/c mice by intraperitoneal inoculation of the ascites cells thereof and the Meth A in the ascites cells as harvested 6 or 7 days after the inoculation was used as tumor cells.
Each of the BALB/c mice was inoculated intrapleurally with 5 x 10^5 Meth A cells in 0.1 ml Hanks solution.
Test compound was dissolved in phosphate buffer saline solution, and was injected into pleural cavity to each of the mice in doses of 100 pg/0.05 ml/mouse three times, i.e. before 14 days, after 1 hour and after 3 days of tumor implantation.
The antitumor activity of the test compound was estimated by comparing mean survival time of the two groups. • T : Mean survival time of the medicated group • C : Mean survival time of the control group

Fibrosarcoma Meth A [2] = test: Test Method A: intradermally inoculated Meth A tumor in mice, intratumoral injection of test compound, tumor growth inhibition; type: in vivo, BALB/c mice; conditions: 100 µg/mouse intratumorally once daily from Day 1 to Day 4 postimplant; for responders at 0.1 mg / inhibition in vivo at 0.1 mg: Meth-A; for responders at 0.1 mg: read-out: Ratio of tumor free mice [Number of tumor free mice/ Number of mice used as a group] (converted); for inhibition in vivo at 0.1 mg: Mus musculus, read-out: Tumor growth inhibition (%) [(1-T/c)x100]; for Mean of two diameters of the growing tumor: 1 x 10^5 Meth A cells intradermally
Description: Groups of six female BALB/c mice, aged 12 weeks and weighing 19 - 21 g were used.
Fib,rosarcoma Meth A (hereinafter referred to as Meth A) was successively transferred every 7 days into BALB/c mice by intraperitoneal inoculation of the ascites cells thereof and the Meth A in the ascites cells as harvested 6 days after the inoculation was used as tumor cells.
Each of the BALB/c mice was inoculated intradermally with 1 x 10^5 Meth A cells in 0.05 ml Hanks solution.
Test compound was dissolved in 0.5% methylcellulose saline solution, and was intratumorally injected to each of the mice in doses of 100 µg/mouse once daily from Day 1 to Day 4 postimplant.
The control group was given with a vehicle alone in the same way.
The antitumor effectiveness of the test compound was estimated by tumor growth inhibition (1-T/C). • T: Mean diameter of the growing tumor of the medicated group • C: Mean diameter of the growing tumor of the control group

Row | Compound | Anti-tumor activity (%) *d (Fibrosarcoma Meth A [1]) [%] | Mean survival time (Fibrosarcoma Meth A [1]) [days] | also measured
1 | CCCCCCCCCCCCCCCCCCOCC(COP(=O)([O-])OCC[n+]1ccccc1)SC (racemic) [3-(31), (rac)-1-0-Octadecyl-2-methylthio-1,3-propanediol-3-[2-(l-pyridinio)ethyl]phosphate] | 358 | 21.5 | 
2 | CCCCCCCCCCCCCCCCCCOCC(COP(=O)([O-])OCC[n+]1ccccc1)NC(=O)NC (racemic) [11-(2), (rac)-1-0-Octadecyl-2-(N'-methylureido)-1,3-propanediol-3-[2-(l-pyridinio)ethyl]phosphate] | 350 | 21.0 | 
3 | CCCCCCCCCCCCCCCCCCOCC(COP(=O)(O)OCCN1CCN(C)CC1)OC (racemic) [3-(16), (rac)-1-O-Octadecyl-2-0-methyl-glycerol-3-[2-(4-methyl-l-piperazinyl)ethyl]phosphate] | 350 | 21.0 | 
4 | CCCCCCCCCCCCCCCCCCOCC(COP(=O)([O-])OCC[n+]1cccc(C(=O)OCC)c1)OC (racemic) [3-(23), (rac)-1-0-Octadecyl-2-0-methyl-glycerol-3-[2-(3-ethoxycarbonyl-1-pyridinio)ethyl]phosphate] |  |  | Ratio of tumor free mice [Number of tumor free mice/ Number of mice used as a group] (Fibrosarcoma Meth A [2]; Day 21): 3/6; responders at 0.1 mg (Fibrosarcoma Meth A [2]; Day 14): 50%; inhibition in vivo at 0.1 mg (Fibrosarcoma Meth A [2]; Day 14): 77%; inhibition in vivo at 0.1 mg (Fibrosarcoma Meth A [2]; Day 21): 70%
5 | CCCCCCCCCCCCCCCCCCOCC(COP(=O)([O-])OCC[n+]1cnn(C)c1)OC (racemic) [3-(21), (rac)-1-0-Octadecyl-2-0-methyl-glycerol-3-[2-(1-methyl-1,2,4-triazol-4-io)ethyl]phosphate] |  |  | Mean of two diameters of the growing tumor (Fibrosarcoma Meth A [2]; Day 14): 0 mm; Ratio of tumor free mice [Number of tumor free mice/ Number of mice used as a group] (Fibrosarcoma Meth A [2]; Day 21): 6/6; Mean of two diameters of the growing tumor (Fibrosarcoma Meth A [2]; Day 21): 0 mm; responders at 0.1 mg (Fibrosarcoma Meth A [2]; Day 14): 100%; inhibition in vivo at 0.1 mg (Fibrosarcoma Meth A [2]; Day 14): 100%; inhibition in vivo at 0.1 mg (Fibrosarcoma Meth A [2]; Day 21): 100%
6 | CCCCCCCCCCCCCCCCCCOCC(Cl)COP(=O)([O-])OCC[n+]1ccccc1 (racemic) [9-(4), (rac)-1-0-Octadecyl-2-chloro-1,3-propanediol-3-[2-(1-pyridinio)ethyl]phosphate] |  |  | Ratio of tumor free mice [Number of tumor free mice/ Number of mice used as a group] (Fibrosarcoma Meth A [2]; Day 21): 4/6; responders at 0.1 mg (Fibrosarcoma Meth A [2]; Day 14): 66.7%; inhibition in vivo at 0.1 mg (Fibrosarcoma Meth A [2]; Day 14): 92%; inhibition in vivo at 0.1 mg (Fibrosarcoma Meth A [2]; Day 21): 86%
7 | CCCCCCCCCCCCCCCCCCOCC(O)COP(=O)([O-])OCC[n+]1ccccc1 (racemic) [3-(30), (rac)-1-0-Octadecyl-glycerol-3-[2-(1-pyridinio)ethyl]-phosphate] |  |  | Ratio of tumor free mice [Number of tumor free mice/ Number of mice used as a group] (Fibrosarcoma Meth A [2]; Day 21): 4/6; responders at 0.1 mg (Fibrosarcoma Meth A [2]; Day 14): 66.7%; inhibition in vivo at 0.1 mg (Fibrosarcoma Meth A [2]; Day 14): 85%; inhibition in vivo at 0.1 mg (Fibrosarcoma Meth A [2]; Day 21): 84%
8 | CCCCCCCCCCCCCCCCCCOCC(COP(=O)(O)OCCn1ccnc1)OC (racemic) [3-(13), (rac)-1-0-Octadecyl-2-0-methyl-glycerol-3-[2-(1-imidazolyl)ethyl]phosphate] |  |  | Ratio of tumor free mice [Number of tumor free mice/ Number of mice used as a group] (Fibrosarcoma Meth A [2]; Day 21): 0/6; responders at 0.1 mg (Fibrosarcoma Meth A [2]; Day 14): 0%; inhibition in vivo at 0.1 mg (Fibrosarcoma Meth A [2]; Day 14): 37%; inhibition in vivo at 0.1 mg (Fibrosarcoma Meth A [2]; Day 21): 31%
9 | CCCCCCCCCCCCCCCCCCOCC(COP(=O)([O-])OCC[n+]1ccn(C)c1)OC (racemic) [3-(25), (rac)-1-0-Octadecyl-2-0-methyl-glycerol-3-[2-(1-methyl-3-imidazolio)ethyl]phosphate] |  |  | Ratio of tumor free mice [Number of tumor free mice/ Number of mice used as a group] (Fibrosarcoma Meth A [2]; Day 21): 5/6; responders at 0.1 mg (Fibrosarcoma Meth A [2]; Day 14): 83.3%; inhibition in vivo at 0.1 mg (Fibrosarcoma Meth A [2]; Day 14): 94%; inhibition in vivo at 0.1 mg (Fibrosarcoma Meth A [2]; Day 21): 93%
10 | CCCCCCCCCCCCCCCCCCOCC(COP(=O)([O-])OCC[n+]1ccccc1)Sc1nncs1 (racemic) [8-(4), (rac)-1-0-Octadecyl-2-(1,3,4-thiadiazolyl-2-thio)-1,3-propanediol-3-[2-(1-pyridinio)ethyl]phosphate] | 417 | 25.0 | 
11 | CCCCCCCCCCCCCCCCCCOCC(COP(=O)([O-])OCC[N+](C)(C)C)OC (racemic) [*e, reference compound] | 242 | 14.5 | 
12 | CCCCCCCCCCCCCCCCOCC(COP(=O)([O-])OCC[n+]1ccccc1)OCc1ccccc1 (racemic) [3-(26), (rac)-l-0-Hexadecyl-2-0-benzyl-glycerol-3-[2-(l-pyridinio)ethyl]phosphate] | >650 | >39.0 | 
13 | CCCCCCCCCCCCCCCCCCOCC(COP(=O)(O)OCCN1CCN(CC)CC1)OC (racemic) [3-(3), (rac)-1-0-Octadecyl-2-0-methyl-glycerol-3-[2-(4-ethyl-l-piperazinyl)ethyl]phosphate] | 317 | 19.0 | 
14 | CCCCCCCCCCCCCCCCCCOCC(COP(=O)([O-])OCC[n+]1ccccc1)NC(=O)OCC (racemic) [10-(6), (rac)-1-0-Octadecyl-2-ethoxycarbonylamino-1,3-propanediol-3-[2-(1-pyridinio)ethyl]phosphate] | <400 | 24.0 | 
15 | CCCCCCCCCCCCCCCCCCOCC(COP(=O)([O-])OCC[n+]1ccccc1)OCC (racemic) [3-(19), (rac)-1-0-Octadecyl-2-0-ethyl-glycerol-3-[2-(1-pyridinio)ethyl]phosphate] | 317 | 19.0 | 
16 | (rac)-1-O-Octadecyl-2-0-methyl-glycerol-3-[2-(N-methyl-4-morpholino)ethyl]phosphate [3-(15)] | 433 | 26.0 | 
17 | CCCCCCCCCCCCCCCCCCOCC(COP(=O)([O-])OCC[n+]1ccccn1)OC (racemic) [3-(12), (rac)-1-0-Octadecyl-2-0-methyl-glycerol-3-[2-(1-pyridazinio)ethyl]phosphate] | 333 | 20.0 | 
18 | CCCCCCCCCCCCCCCCCCOCC(COP(=O)([O-])OCC[n+]1ccc(C)cc1)OC (racemic) [3-(9), (rac)-1-0-Octadecyl-2-0-methyl-glycerol-3-[2-(4-methyl-l-pyridinio)ethyl]phosphate] | 350 | 21.0 | 
19 | CCCCCCCCCCCCCCCCCCOCC(COP(=O)([O-])OCCNC(=O)C[n+]1ccccc1)OC (racemic) [5-(2), (rac)-1-0-Octadecyl-2-0-methyl-glycerol-3-[2-(1-pyridinioacetylamino)ethyl]phoshate] | 364 | 25.5 | 
20 | CCCCCCCCCCCCCCCCCCOCC(COP(=O)([O-])OCC[n+]1cccc(C)c1)OC (racemic) [3-(10), (rac)-1-0-Octadecyl-2-0-methyl-glycerol-3-(2-(3-methyl-1-pyridinio)ethyl]phosphate] | 364 | 25.5 | 
21 | CCCCCCCCCCCCCCCCCCOCC(COP(=O)(O)OCCN1CCCCC1)OC (racemic) [3-(14), (rac)-l-O-Octadecyl-2-0-methyl-glycerol-3-(2-piperidinoethyl)phosphate] | 325 | 19.5 | 
22 | CCCCCCCCCCCCCCCCCCOCC(COP(=O)([O-])OCC[n+]1ccsc1)OC (racemic) [3-(22), (rac)-1-O-Octadecyl-2-0-methyl-glycerol-3-[2-(3-thiazolio)ethyl]phosphate] |  |  | Ratio of tumor free mice [Number of tumor free mice/ Number of mice used as a group] (Fibrosarcoma Meth A [2]; Day 21): 3/6; responders at 0.1 mg (Fibrosarcoma Meth A [2]; Day 14): 50%; inhibition in vivo at 0.1 mg (Fibrosarcoma Meth A [2]; Day 14): 77%; inhibition in vivo at 0.1 mg (Fibrosarcoma Meth A [2]; Day 21): 68%
23 | CCCCCCCCCCCCCCCCCCOCC(COP(=O)(O)OCCN1CCN(CCO)CC1)OC (racemic) [3-(7), (rac)-1-0-Octadecyl-2-0-methyl-glycerol-3-[2-[4-(2-hydroxyethyl)-1-piperazinyl]ethyl]phosphate] | 325 | 19.5 | 
24 | CCCCCCCCCCCCCCCCCCOCCCOP(=O)([O-])OCC[n+]1ccccc1 [3-(29), (rac)-1-0-Octadecyl-1,3-propanediol-3-[2-(1-pyridinio)-ethyl]phosphate] | 264 | 18.5 | 
25 | CCCCCCCCCCCCCCCCOCC(COP(=O)(O)OCCN1CCN(C)CC1)OC (racemic) [3-(2), (rac)-1-0-Hexadecyl-2-0-methyl-glycerol-3-[2-(4-methyl-l-piperazinyl)ethyl]phosphate] | 350 | 21.0 | 
26 | CCCCCCCCCCCCCCCCCCOCC(COP(=O)([O-])OCC[n+]1cccn1C)OC (racemic) [3-(18), (rac)-1-0-Octadecyl-2-0-methyl-glycerol-3-[2-(1-methyl-2-pyrazolio)ethyl]phosphate] | 325 | 19.5 | 
